Measurements taken from patent US8940783B2, “Pheophorbide-α conjugates and their uses” (Gwangju Institute of Science and Technology, priority 2012, dated 2015).

Key:
[1] = test system: MCF7 (breast adenocarcinoma) cells; assay: SRB cell viability assay, MCF7; type: cell-based; settings: 10 μM, three days
Method: (§1) The AT-84 is a squamous cell carcinoma, spontaneously arising from oral mucosa and syngenic to C3H/HeJ mice (which were kindly provided by Dr. E. J. Shillitoe, State University of New York, Upstate Medical University). MCF7, KB, HCT116, PC3, U-87MG, SK-OV-3, AT-84 cells were grown in RPMI 1640. The adherent cell line HepG2, HeLa, A549, YD-10B cells were cultured in DMEM medium. Both media were supplemented with 10% FBS (Invitrogen Co.), and antibiotic-antimycotic (Invitrogen Co.). All cell lines were incubated in a humidified atmosphere containing 5% CO2 at 37° C. The adherent cells were detached from the culture flasks by removal of the growth medium and addition of 1 mL trypsin/EDTA solution (0.05% w/v trypsin, 0.016% w/v EDTA). After 1-2 min incubation at 37° C., when the cells had detached from the surface, trypsinization was stopped by the addition of 4 mL of DMEM medium containing 10% FBS. […]
(§2) A cell viability assay was conducted to test the synthesized compounds on various cancer cells including MCF7 (breast adenocarcinoma), KB (mouth carcinoma), HeLa (cervical cancer), U-87MG (glioblastoma), A549 (lung adenocarcinoma), AT-84 (oral cancer), and YD-10B (oral cancer) cells. Briefly, the cells were incubated for three days with the synthesized compounds (6, 7, 10, and 13) and the viability was measured by the protocol of SRB assay. […]

[2] = test system: HeLa (cervical cancer) cells; assay: SRB cell viability assay, HeLa; type: cell-based; settings: 10 μM, three days
Method: as §1, §2

[3] = test system: U-87MG (glioblastoma) cells; assay: SRB cell viability assay, U-87MG; type: cell-based; settings: U-87MG cells, 10 μM, three days
Method: as §1, §2

[4] = test system: AT-84 (oral cancer) cells; assay: SRB cell viability assay, AT-84; type: cell-based, mice; settings: AT-84 cells, 10 μM, three days
Method: as §1, §2

various cancer cells = assay: SRB cell viability assay, various cancer cells (overall comparison); type: cell-based; settings: same concentration (10 μM), three days; 6 compared with DOX; 10 and 13 compared with Pa-DOX direct conjugate
Method: The AT-84 is a squamous cell carcinoma, spontaneously arising from oral mucosa and syngenic to C3H/HeJ mice (which were kindly provided by Dr. E. J. Shillitoe, State University of New York, Upstate Medical University). MCF7, KB, HCT116, PC3, U-87MG, SK-OV-3, AT-84 cells were grown in RPMI 1640. The adherent cell line HepG2, HeLa, A549, YD-10B cells were cultured in DMEM medium. Both media were supplemented with 10% FBS (Invitrogen Co.), and antibiotic-antimycotic (Invitrogen Co.). All cell lines were incubated in a humidified atmosphere containing 5% CO2 at 37° C. The adherent cells were detached from the culture flasks by removal of the growth medium and addition of 1 mL trypsin/EDTA solution (0.05% w/v trypsin, 0.016% w/v EDTA). After 1-2 min incubation at 37° C., when the cells had detached from the surface, trypsinization was stopped by the addition of 4 mL of DMEM medium containing 10% FBS.
The cells were plated at a density of 50,000 cells/mL and well in 96-well plates and incubated with inhibitors for the time indicated. The SRB assay was carried out as described by Skehan et al. (Skehan, P. et al., J. Natl. Cancer Inst. 1990, 82, 1107). The drug incubation period of the cells was stopped by the addition of 50 μL of ice cold TCA solution into the growth medium.
A cell viability assay was conducted to test the synthesized compounds on various cancer cells including MCF7 (breast adenocarcinoma), KB (mouth carcinoma), HeLa (cervical cancer), U-87MG (glioblastoma), A549 (lung adenocarcinoma), AT-84 (oral cancer), and YD-10B (oral cancer) cells. Briefly, the cells were incubated for three days with the synthesized compounds (6, 7, 10, and 13) and the viability was measured by the protocol of SRB assay. […] The results may be interpreted with possibilities that the conjugates may suffer from entering the cells or being cleaved in the cells. Infact, the cellular uptake of the conjugates was occurred slower than Pa itself as shown in the study of Section 2.4. […]

[5] = Fluorescence spectrometry; type: physicochemical; settings: for fluorescence emission peak: 1 μM in MeOH; for blue shift of fluorescence emission spectra at pH 4 from those at pH 10 / intensity of fluorescence at pH 4 and pH 10 / intensity of fluorescence in 50% aqueous MeOH compared with 100% MeOH: 420 nm excitation, 6 at 1 μM; for blue shift of fluorescence emission spectra at pH 4 from those at pH 10 / intensity of fluorescence at pH 4 and pH 10: 7 at 0.3 μM; for intensity of fluorescence in 50% aqueous MeOH compared with 100% MeOH: 7 at 0.5 μM
Method: Fluorescence measurements were done using a FluoroMate FS-2. Steady-state fluorescence spectra were generally taken at 1 μM of compounds (1, 2, 6, 10, and 13) and 0.5 μM of compound 7 in MeOH. The samples were illuminated with 420 and 440 nm of light and fluorescence emission was scanned from 500 to 800 nm. Fluorescence spectra in both aqueous and organic solvent were generally taken at 1 μM of compound 6 and 0.5 μM of compound 7 in 100% MeOH and 50% aqueous MeOH by illumination with 420 nm of light. The pH profiles of fluorescence spectra were generally taken at 1 μM of compound 6 and 0.3 μM of compound 7 at pH 4 and 10 in MeOH by illumination with 420 nm of light.
To determine fluorescence quenching effect of the conjugates, the intensity of fluorescence of each compound with same concentration was analyzed using fluorescence spectrophotometer. The fluorescence emission spectrum of compounds at 1 μM (1, 2, 6, 10, and 13) and 0.5 μM (7) was obtained by excitation wavelengths (420 and 440 nm). […] Therefore, it could be speculated that the background fluorescence of the conjugates as they are administered invivo, may not be detected until internalization and cleavage of the conjugates by enzymatic attack in cancer cells are occurred so that the photoactivity of Pa and DOX may be recovered. In the case of Pa-PTX conjugate (7), fluorescence quenching effect was not observed as PTX is not a fluorophore (FIG. 3). To verify fluorescence quenching due to a close contact effect, spectral comparison of fluorescence emission of compounds 6 (1 μM) and 7 (0.5 μM) in aqueous and organic solvent was investigated by 420 nm excitation wavelength using fluorescence spectrophotometer. In contact quenching, two molecules interact by proton-coupled electron transfer through the formation of hydrogen bonds. In aqueous solutions, electrostatic, steric and hydrophobic forces control the formation of hydrogen bonds. Therefore, the quenching efficiency of conjugates could depend on the employed solvents.

[6] = test system: KB (mouth carcinoma) cells; assay: SRB cell viability assay, KB; type: cell-based; settings: 10 μM, three days
Method: as §1, §2

[7] = test system: YD-10B (oral cancer) cells; assay: SRB cell viability assay, YD-10B; type: cell-based; settings: YD-10B cells, 10 μM, three days
Method: as §1, §2

| Compound | inhibition of growth / cell viability [1] | inhibition of growth / cell viability [2] | inhibitory activity of the cell viability relative to comparator (various cancer cells) | fluorescence emission peak ([5]; excitation 420 and 440 nm) [nm] | blue shift of fluorescence emission spectra at pH 4 from those at pH 10 [5] | intensity of fluorescence at pH 4 and pH 10 [5] | intensity of fluorescence in 50% aqueous MeOH compared with 100% MeOH [5] | further results |
| --- | --- | --- | --- | --- | --- | --- | --- | --- |
| C=Cc1c(C)c2cc3nc(c4c5[nH]c(cc6nc(cc1[nH]2)C(C)=C6CC)c(C)c5C(=O)C4C(=O)OC)[C@@H](CCC(=O)NC1C[C@@H](O[C@H]2C[C@](O)(C(=O)CO)Cc4c(O)c5c(c(O)c42)C(=O)c2c(OC)cccc2C5=O)O[C@H](C)[C@@H]1O)[C@@H]3C (stereo partly drawn) [Compound 6, Pheophorbide-α-Doxorubicin] | moderately inhibited | moderately inhibited | lower activity than DOX itself | 670 | about 10 nm | increased at pH 4 but decreased at pH 10 | significantly reduced | inhibition of growth / cell viability [3]: moderately inhibited; inhibition of growth / cell viability [4]: moderately inhibited |
| C=Cc1c(C)c2cc3nc(c4c5[nH]c(cc6nc(cc1[nH]2)C(C)=C6CC)c(C)c5C(=O)C4C(=O)OC)[C@@H](CCC(=O)O)[C@@H]3C (stereo partly drawn) [Compound 1, Pheophorbide-α] |  |  |  | 665 |  |  |  |  |
| Pheophorbide-α-4-aminobenzyl alcohol-4-nitrophenyl formate-doxorubicin [Compound 13] |  |  | generally less inhibitory activity | 670 |  |  |  |  |
| C=Cc1c(C)c2cc3nc(c4c5[nH]c(cc6nc(cc1[nH]2)C(C)=C6CC)c(C)c5C(=O)C4C(=O)OC)[C@@H](CCC(=O)O[C@H](C(=O)O[C@H]1C[C@@]2(O)[C@@H](OC(=O)c4ccccc4)[C@@H]4[C@]5(OC(C)=O)CO[C@@H]5C[C@H](O)[C@@]4(C)C(=O)[C@H](OC(C)=O)C(=C1C)C2(C)C)[C@H](NC(=O)c1ccccc1)c1ccccc1)[C@@H]3C (stereo partly drawn) [Compound 7, Pheophorbide-α-Paclitaxel] | potent inhibitory activity | potent inhibitory activity |  |  | about 10 nm | increased at pH 4 but decreased at pH 10 | significantly reduced | inhibition of growth / cell viability [6]: potent inhibitory activity; inhibition of growth / cell viability [7]: potent inhibitory activity; fluorescence quenching effect ([5]; 0.5 μM in MeOH, excitation 420 and 440 nm): not observed |
| Pheophorbide-α-2-hydroxycinnamic acid-doxorubicin [Compound 10] |  |  | generally less inhibitory activity | 670 |  |  |  |  |
| COc1cccc2c1C(=O)c1c(O)c3c(c(O)c1C2=O)C[C@@](O)(C(=O)CO)C[C@@H]3O[C@H]1C[C@H](N)[C@H](O)[C@H](C)O1 [Compound 2, doxorubicin, reference compound] |  |  |  | 585 |  |  |  |  |
